Results taken from article PMC3427755 (Organic & biomolecular chemistry, 2012).

Key:
[1] = tested on: patients harboring the B-Raf^V600E mutation; details: cited from earlier work
IGF1R = IGF1R (Homo sapiens, UniProt P08069); experiment: Kinase profiling, IGF1R; format: biochemical; details: read-out: Inhibition rate (%) IGF1R
KDR = KDR (Homo sapiens, UniProt P35968); experiment: Kinase profiling, KDR; format: biochemical; details: read-out: Inhibition rate (%) KDR
[2] = tested on: WM3918 melanoma cells not expressing mutant B-Raf; experiment: Melanoma proliferation assay; format: cell-based, human; details: dose-dependent, 72 h, Figure 3
cKIT = cKIT (Homo sapiens, UniProt P10721); experiment: Kinase profiling, cKIT; format: biochemical; details: read-out: Inhibition rate (%) cKIT
Chain of cKIT (P10721 26-976): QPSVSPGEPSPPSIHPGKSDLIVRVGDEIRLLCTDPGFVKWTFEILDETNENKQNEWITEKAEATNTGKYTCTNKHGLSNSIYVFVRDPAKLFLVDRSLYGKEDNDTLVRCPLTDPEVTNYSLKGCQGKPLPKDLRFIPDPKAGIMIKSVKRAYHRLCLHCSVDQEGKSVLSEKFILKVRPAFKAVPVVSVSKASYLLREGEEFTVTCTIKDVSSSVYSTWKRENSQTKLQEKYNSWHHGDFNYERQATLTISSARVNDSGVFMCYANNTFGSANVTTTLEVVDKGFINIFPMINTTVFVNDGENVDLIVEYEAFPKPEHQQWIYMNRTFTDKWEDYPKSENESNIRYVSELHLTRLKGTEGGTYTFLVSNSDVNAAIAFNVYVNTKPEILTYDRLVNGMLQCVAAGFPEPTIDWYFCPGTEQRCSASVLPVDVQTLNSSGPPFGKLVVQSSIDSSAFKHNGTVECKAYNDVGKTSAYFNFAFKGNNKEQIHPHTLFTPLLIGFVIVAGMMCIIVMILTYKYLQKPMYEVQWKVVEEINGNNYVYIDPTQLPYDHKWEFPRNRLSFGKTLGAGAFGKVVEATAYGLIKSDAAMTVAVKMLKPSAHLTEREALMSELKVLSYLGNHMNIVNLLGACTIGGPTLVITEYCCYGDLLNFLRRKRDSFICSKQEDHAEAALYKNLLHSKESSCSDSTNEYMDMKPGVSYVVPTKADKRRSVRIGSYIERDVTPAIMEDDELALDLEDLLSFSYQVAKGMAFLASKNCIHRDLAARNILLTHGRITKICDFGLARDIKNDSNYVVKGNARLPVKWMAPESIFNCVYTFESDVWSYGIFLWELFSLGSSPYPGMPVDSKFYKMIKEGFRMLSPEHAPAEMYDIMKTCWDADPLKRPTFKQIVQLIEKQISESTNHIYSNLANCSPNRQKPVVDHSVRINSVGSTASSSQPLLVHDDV

CDK2 = CDK2 (Homo sapiens, UniProt P24941); experiment: Kinase profiling, CDK2; format: biochemical; details: read-out: Inhibition rate (%) CDK2
[3] = tested on: A375 (B-Raf^V600E) malignant melanoma cells; experiment: Anti-proliferation activity, A375 melanoma cells; format: cell-based, human; details: for inhibition at 10 µM: Homo sapiens, A-375, read-out: Tumor growth inhibition rate A375(B-Raf^V600E); for Tumor growth inhibition rate A375(B-Raf^V600E): [I]=10μM
[4] = tested on: 1205Lu (B-Raf^V600E bearing) melanoma cells; experiment: Melanoma proliferation assay; format: cell-based, human; details: dose-dependent, 72 h, Figure 3
IKKβ = target: T1, IKKβ (Homo sapiens, UniProt O14920); experiment: Kinase profiling, IKKβ; format: biochemical; details: for inhibition at 1 µM / inhibition at 5 µM: read-out: Inhibition rate (%) IKKβ
T1 sequence (O14920 1-756): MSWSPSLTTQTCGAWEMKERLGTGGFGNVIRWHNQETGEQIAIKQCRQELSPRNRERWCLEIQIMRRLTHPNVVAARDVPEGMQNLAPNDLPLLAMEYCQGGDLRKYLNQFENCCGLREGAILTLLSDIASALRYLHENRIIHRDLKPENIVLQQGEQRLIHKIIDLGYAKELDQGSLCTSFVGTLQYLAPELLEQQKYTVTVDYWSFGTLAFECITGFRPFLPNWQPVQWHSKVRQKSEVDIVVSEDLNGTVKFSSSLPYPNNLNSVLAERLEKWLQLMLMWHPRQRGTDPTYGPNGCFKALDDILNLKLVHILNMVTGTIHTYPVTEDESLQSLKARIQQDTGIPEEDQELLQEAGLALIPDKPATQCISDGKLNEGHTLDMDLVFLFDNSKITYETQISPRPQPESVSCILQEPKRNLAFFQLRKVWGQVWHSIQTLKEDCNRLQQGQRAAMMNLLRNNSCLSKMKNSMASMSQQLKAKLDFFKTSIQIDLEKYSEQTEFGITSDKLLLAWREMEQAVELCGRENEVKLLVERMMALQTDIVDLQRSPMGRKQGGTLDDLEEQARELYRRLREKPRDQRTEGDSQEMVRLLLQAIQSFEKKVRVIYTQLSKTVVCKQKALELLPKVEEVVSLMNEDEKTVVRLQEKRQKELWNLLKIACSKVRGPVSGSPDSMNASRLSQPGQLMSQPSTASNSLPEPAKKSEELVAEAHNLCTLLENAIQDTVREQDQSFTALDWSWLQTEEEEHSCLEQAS

LCK = LCK (Homo sapiens, UniProt P06239); experiment: Kinase profiling, LCK; format: biochemical; details: read-out: Inhibition rate (%) LCK
Chain of LCK (P06239 whole entry, species assumed): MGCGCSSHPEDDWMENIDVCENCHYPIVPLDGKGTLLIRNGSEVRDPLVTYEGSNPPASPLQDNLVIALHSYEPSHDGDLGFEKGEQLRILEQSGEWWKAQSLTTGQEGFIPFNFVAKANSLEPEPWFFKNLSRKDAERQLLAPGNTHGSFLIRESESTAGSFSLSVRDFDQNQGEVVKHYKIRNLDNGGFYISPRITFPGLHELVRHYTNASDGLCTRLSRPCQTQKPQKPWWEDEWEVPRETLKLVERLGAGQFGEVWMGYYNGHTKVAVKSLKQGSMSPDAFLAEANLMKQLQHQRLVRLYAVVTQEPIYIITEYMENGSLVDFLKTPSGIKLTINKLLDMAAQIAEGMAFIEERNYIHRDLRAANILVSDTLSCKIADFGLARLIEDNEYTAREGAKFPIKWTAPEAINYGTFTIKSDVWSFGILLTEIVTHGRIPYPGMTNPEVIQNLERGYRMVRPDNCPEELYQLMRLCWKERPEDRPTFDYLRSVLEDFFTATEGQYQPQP

SRC = SRC (Homo sapiens, UniProt P12931); experiment: Kinase profiling, SRC; format: biochemical; details: read-out: Inhibition rate (%) SRC
Chain of SRC (P12931 whole entry, species assumed): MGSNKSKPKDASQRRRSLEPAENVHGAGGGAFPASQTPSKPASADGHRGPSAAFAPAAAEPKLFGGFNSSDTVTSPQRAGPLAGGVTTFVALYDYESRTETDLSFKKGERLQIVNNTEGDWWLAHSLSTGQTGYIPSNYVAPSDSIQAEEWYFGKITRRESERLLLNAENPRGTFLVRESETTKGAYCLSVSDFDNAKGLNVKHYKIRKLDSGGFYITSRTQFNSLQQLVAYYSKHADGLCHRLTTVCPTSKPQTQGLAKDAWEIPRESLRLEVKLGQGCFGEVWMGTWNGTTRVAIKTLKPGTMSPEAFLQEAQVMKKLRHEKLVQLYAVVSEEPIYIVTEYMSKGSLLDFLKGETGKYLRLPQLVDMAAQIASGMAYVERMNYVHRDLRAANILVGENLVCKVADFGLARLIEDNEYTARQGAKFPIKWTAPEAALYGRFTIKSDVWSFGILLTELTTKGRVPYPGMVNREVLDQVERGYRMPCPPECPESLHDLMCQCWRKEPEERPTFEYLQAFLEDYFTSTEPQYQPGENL

[5] = tested on: SW620 (B-Raf^WT) human colonic carcinoma cells; experiment: Anti-proliferation activity, SW620 cells; format: cell-based; details: SW-620, read-out: Tumor growth inhibition rate SW620 (B-Raf)
B-Raf^V600E = B-Raf^V600E (Homo sapiens, UniProt P15056, V600E); experiment: In vitro B-Raf kinase assay; format: biochemical; details: panel of 16 protein kinases
[6] = tested on: WM983B (B-Raf^V600E bearing) melanoma cells; experiment: Melanoma proliferation assay; format: cell-based, human; details: dose-dependent, 72 h, Figure 3
AKT1 = AKT1 (Homo sapiens, UniProt P31749); experiment: Kinase profiling, AKT1; format: biochemical; details: read-out: Inhibition rate (%) AKT1
Chain of AKT1 (P31749 whole entry, species assumed): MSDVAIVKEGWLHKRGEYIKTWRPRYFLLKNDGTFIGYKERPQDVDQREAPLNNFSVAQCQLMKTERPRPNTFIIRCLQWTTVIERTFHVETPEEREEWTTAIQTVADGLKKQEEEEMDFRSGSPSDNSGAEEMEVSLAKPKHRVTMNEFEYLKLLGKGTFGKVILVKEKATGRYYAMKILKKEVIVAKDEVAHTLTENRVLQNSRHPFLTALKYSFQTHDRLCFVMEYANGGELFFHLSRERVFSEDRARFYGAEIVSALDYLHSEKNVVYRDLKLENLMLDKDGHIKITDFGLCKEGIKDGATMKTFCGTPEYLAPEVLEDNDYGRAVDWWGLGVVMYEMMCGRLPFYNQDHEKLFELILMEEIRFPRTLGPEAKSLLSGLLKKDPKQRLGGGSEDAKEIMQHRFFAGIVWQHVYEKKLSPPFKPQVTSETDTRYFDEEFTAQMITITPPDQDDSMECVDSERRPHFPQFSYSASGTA

ERK1 = ERK1 (Homo sapiens, UniProt P27361); experiment: Kinase profiling, ERK1; format: biochemical; details: read-out: Inhibition rate (%) ERK1
Chain of ERK1 (P27361 whole entry, species assumed): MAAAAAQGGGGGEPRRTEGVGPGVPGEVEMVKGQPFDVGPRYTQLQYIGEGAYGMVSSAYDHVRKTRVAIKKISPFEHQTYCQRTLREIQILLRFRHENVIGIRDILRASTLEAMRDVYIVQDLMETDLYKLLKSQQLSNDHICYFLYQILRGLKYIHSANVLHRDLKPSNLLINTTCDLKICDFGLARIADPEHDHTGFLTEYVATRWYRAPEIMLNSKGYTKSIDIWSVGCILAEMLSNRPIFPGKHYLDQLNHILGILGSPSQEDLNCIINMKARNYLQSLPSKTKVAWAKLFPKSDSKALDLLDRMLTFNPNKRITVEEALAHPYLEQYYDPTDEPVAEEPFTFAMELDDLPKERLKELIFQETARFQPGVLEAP

MET = MET (Homo sapiens, UniProt P08581); experiment: Kinase profiling, MET; format: biochemical; details: read-out: Inhibition rate (%) MET
Chain of MET (P08581 25-1390): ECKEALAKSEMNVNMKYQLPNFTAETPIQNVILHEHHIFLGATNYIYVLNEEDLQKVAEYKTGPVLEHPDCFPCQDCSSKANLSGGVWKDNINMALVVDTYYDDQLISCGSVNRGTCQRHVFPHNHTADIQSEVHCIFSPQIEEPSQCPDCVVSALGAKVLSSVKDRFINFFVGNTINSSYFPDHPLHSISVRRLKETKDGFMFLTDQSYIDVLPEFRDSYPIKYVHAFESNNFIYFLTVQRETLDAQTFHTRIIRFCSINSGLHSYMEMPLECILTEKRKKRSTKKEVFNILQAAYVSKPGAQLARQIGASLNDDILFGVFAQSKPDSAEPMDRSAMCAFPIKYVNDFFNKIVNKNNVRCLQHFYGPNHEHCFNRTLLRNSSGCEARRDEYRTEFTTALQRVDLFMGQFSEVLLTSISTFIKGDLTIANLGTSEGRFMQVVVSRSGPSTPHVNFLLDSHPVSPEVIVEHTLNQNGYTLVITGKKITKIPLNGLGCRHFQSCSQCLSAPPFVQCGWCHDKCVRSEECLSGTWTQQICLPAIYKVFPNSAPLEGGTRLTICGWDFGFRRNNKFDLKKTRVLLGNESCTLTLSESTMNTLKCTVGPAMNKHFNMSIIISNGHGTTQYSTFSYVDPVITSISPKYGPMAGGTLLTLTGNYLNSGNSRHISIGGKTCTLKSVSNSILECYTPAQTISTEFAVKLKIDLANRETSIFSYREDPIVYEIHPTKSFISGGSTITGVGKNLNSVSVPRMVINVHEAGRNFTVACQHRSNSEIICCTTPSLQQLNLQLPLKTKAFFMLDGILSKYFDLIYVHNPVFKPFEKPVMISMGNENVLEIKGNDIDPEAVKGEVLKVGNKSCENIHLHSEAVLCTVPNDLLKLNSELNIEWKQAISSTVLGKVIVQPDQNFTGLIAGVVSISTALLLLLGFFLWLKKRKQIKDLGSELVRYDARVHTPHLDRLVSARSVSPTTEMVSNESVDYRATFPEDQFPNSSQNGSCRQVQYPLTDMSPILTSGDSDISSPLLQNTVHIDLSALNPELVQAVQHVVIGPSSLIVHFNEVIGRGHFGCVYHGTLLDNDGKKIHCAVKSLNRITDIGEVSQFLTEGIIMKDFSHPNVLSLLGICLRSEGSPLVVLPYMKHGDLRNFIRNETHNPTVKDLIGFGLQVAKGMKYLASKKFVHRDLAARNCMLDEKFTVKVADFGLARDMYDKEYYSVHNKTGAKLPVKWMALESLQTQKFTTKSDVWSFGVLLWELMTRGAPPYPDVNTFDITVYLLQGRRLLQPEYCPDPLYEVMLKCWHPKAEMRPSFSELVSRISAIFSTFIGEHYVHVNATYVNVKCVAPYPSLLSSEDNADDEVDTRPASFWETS

[7] = tested on: normal human primary fibroblasts (FF2508); experiment: Proliferation assay; format: cell-based; details: dose-dependent, 72 h, Figure 3
PDGFRα = PDGFRα (Homo sapiens, UniProt P16234); experiment: Kinase profiling, PDGFRα; format: biochemical; details: read-out: Inhibition rate (%) PDGFRα
FGFR1 = FGFR1 (Homo sapiens, UniProt P11362); experiment: Kinase profiling, FGFR1; format: biochemical; details: for inhibition at 1 µM / inhibition at 5 µM: read-out: Inhibition rate (%) FGFR1
EGFR = EGFR (Homo sapiens, UniProt P00533); experiment: Kinase profiling, EGFR; format: biochemical; details: read-out: Inhibition rate (%) EGFR
PKCα = PKCα (Homo sapiens, UniProt P17252); experiment: Kinase profiling, PKCα; format: biochemical; details: read-out: Inhibition rate (%) PKCα
B-Raf^WT = B-Raf^WT (Homo sapiens, UniProt P15056); experiment: In vitro B-Raf kinase assay; format: biochemical
P38α = P38α (Homo sapiens, UniProt Q16539); experiment: Kinase profiling, P38α; format: biochemical; details: read-out: Inhibition rate (%) P38α

**Q.** For CCCS(=O)(=O)Nc1ccc(F)c(C(=O)c2c[nH]c3ncc(-c4ccc(Cl)cc4)cc23)c1F [Vemurafenib], which “side effects in treated patients” value ([1]; Vemurafenib treated patients) is on record?
**A.** induction of keratoacanthoma was frequently observed

**Q.** And the “tumor regression in patients” value ([1]; patients harboring the B-Raf^V600E mutation)?
**A.** complete or partial tumor regression in the majority of patients

**Q.** For O=C1NC(=S)NC(=O)C1=Cc1ccc(-c2ccc3c(c2)OCO3)o1 [Compound 22q, 5-[5-(3,4-methylenedioxy)-furan-2ylmethylene]-2-thioxo-dihydro-pyrimidine-4,6-dione], which inhibition at 1 µM (IGF1R) is on record?
**A.** 5.6%

**Q.** What about the inhibition at 5 µM (IGF1R) of the same compound?
**A.** 6.8%

**Q.** And the inhibition at 5 µM (KDR)?
**A.** 1.2%

**Q.** And the “proliferation of WM3918 cells” value [2]?
**A.** significantly more resistant

**Q.** And the inhibition at 1 µM (cKIT)?
**A.** 18.3%

**Q.** And the inhibition at 5 µM (cKIT)?
**A.** 20%

**Q.** And the inhibition at 1 µM (CDK2)?
**A.** 3.3%

**Q.** And the inhibition at 5 µM (CDK2)?
**A.** 12.6%

**Q.** What about the inhibition at 10 µM [3] of the same compound?
**A.** 77.7%

**Q.** What about the “Tumor growth inhibition rate A375(B-Raf^V600E)” value [3] of the same compound?
**A.** potent growth inhibition activity

**Q.** And the “proliferation of 1205Lu cells” value [4]?
**A.** significantly inhibited

**Q.** What about the inhibition at 1 µM (IKKβ) of the same compound?
**A.** 15%

**Q.** And the inhibition at 5 µM (IKKβ)?
**A.** 35.7%

**Q.** What about the inhibition at 5 µM (LCK) of the same compound?
**A.** 0.8%

**Q.** What about the inhibition at 1 µM (SRC) of the same compound?
**A.** 6.2%

**Q.** What about the inhibition at 5 µM (SRC) of the same compound?
**A.** 15.2%

**Q.** And the inhibition at 10 µM [5]?
**A.** 47.7%

**Q.** And the “selectivity for B-Raf^V600E over other tested protein kinases” value (B-Raf^V600E)?
**A.** more than 10 fold

**Q.** What about the “proliferation of WM983B cells” value [6] of the same compound?
**A.** significantly inhibited

**Q.** And the inhibition at 1 µM (AKT1)?
**A.** 4.6%

**Q.** And the inhibition at 5 µM (AKT1)?
**A.** 14.5%

**Q.** And the inhibition at 1 µM (ERK1)?
**A.** 10%

**Q.** What about the inhibition at 5 µM (ERK1) of the same compound?
**A.** 13.7%

**Q.** What about the inhibition at 1 µM (MET) of the same compound?
**A.** 18.6%

**Q.** What about the inhibition at 5 µM (MET) of the same compound?
**A.** 19.4%

**Q.** What about the “proliferation of FF2508 fibroblasts” value [7] of the same compound?
**A.** significantly more resistant

**Q.** And the inhibition at 1 µM (PDGFRα)?
**A.** 6%

**Q.** And the inhibition at 5 µM (PDGFRα)?
**A.** 7.7%

**Q.** What about the inhibition at 1 µM (FGFR1) of the same compound?
**A.** 4.9%

**Q.** What about the inhibition at 5 µM (FGFR1) of the same compound?
**A.** 18.6%

**Q.** And the inhibition at 5 µM (EGFR)?
**A.** 19.4%

**Q.** What about the inhibition at 5 µM (PKCα) of the same compound?
**A.** 5.2%

**Q.** With O=C1NC(=S)NC(=O)C1=Cc1ccc(-c2ccc(Br)cc2)o1 [Compound 22f, 5-[5-(4-bromo-phenyl)-furan-2ylmethylene]-2-thioxo-dihydro-pyrimidine-4,6-dione] as the compound, how does the IC50 (B-Raf^WT) read?
**A.** 600 nM

**Q.** What about the inhibition at 1 µM (IGF1R) of the same compound?
**A.** 9.5%

**Q.** What about the inhibition at 5 µM (IGF1R) of the same compound?
**A.** 15.6%

**Q.** What about the inhibition at 1 µM (KDR) of the same compound?
**A.** 3.9%

**Q.** And the inhibition at 5 µM (KDR)?
**A.** 6.1%

**Q.** And the “proliferation of WM3918 cells” value [2]?
**A.** significantly more resistant

**Q.** What about the inhibition at 1 µM (cKIT) of the same compound?
**A.** 18.6%

**Q.** What about the inhibition at 5 µM (cKIT) of the same compound?
**A.** 40.3%

**Q.** And the inhibition at 1 µM (CDK2)?
**A.** 11.6%

**Q.** What about the inhibition at 5 µM (CDK2) of the same compound?
**A.** 39.7%

**Q.** What about the inhibition at 10 µM [3] of the same compound?
**A.** 65.3%

**Q.** What about the “Tumor growth inhibition rate A375(B-Raf^V600E)” value [3] of the same compound?
**A.** potent growth inhibition activity

**Q.** What about the “proliferation of 1205Lu cells” value [4] of the same compound?
**A.** significantly inhibited

**Q.** And the “Inhibition rate (%) IKKβ” value (IKKβ; 5μM, ATP at Km)?
**A.** significantly inhibited

**Q.** What about the inhibition at 1 µM (IKKβ) of the same compound?
**A.** 27.8%

**Q.** What about the inhibition at 5 µM (IKKβ) of the same compound?
**A.** 52.1%

**Q.** And the inhibition at 1 µM (LCK)?
**A.** 10.5%

**Q.** What about the inhibition at 5 µM (LCK) of the same compound?
**A.** 10.5%

**Q.** And the inhibition at 1 µM (SRC)?
**A.** 8.6%

**Q.** What about the inhibition at 5 µM (SRC) of the same compound?
**A.** 28.3%

**Q.** What about the “proliferation of WM983B cells” value [6] of the same compound?
**A.** significantly inhibited

**Q.** And the inhibition at 5 µM (P38α)?
**A.** 7.7%

**Q.** And the inhibition at 1 µM (AKT1)?
**A.** 10.8%

**Q.** And the inhibition at 5 µM (AKT1)?
**A.** 20.3%

**Q.** And the inhibition at 1 µM (ERK1)?
**A.** 14.5%

**Q.** What about the inhibition at 5 µM (ERK1) of the same compound?
**A.** 30.7%

**Q.** What about the inhibition at 1 µM (MET) of the same compound?
**A.** 34.2%

**Q.** And the inhibition at 5 µM (MET)?
**A.** 42.2%

**Q.** And the “proliferation of FF2508 fibroblasts” value [7]?
**A.** significantly more resistant

**Q.** And the inhibition at 1 µM (PDGFRα)?
**A.** 7.2%

**Q.** What about the inhibition at 5 µM (PDGFRα) of the same compound?
**A.** 20.4%

**Q.** What about the “Inhibition rate (%) FGFR1” value (FGFR1; 5μM, ATP at Km) of the same compound?
**A.** significantly inhibited

**Q.** And the inhibition at 1 µM (FGFR1)?
**A.** 15%

**Q.** And the inhibition at 5 µM (FGFR1)?
**A.** 72.2%

**Q.** And the inhibition at 1 µM (EGFR)?
**A.** 12.6%

**Q.** What about the inhibition at 5 µM (EGFR) of the same compound?
**A.** 46.1%

**Q.** What about the inhibition at 1 µM (PKCα) of the same compound?
**A.** 16.2%

**Q.** What about the inhibition at 5 µM (PKCα) of the same compound?
**A.** 26.4%
